# Experimental data published in PMC8282797, “Strictly regulated agonist-dependent activation of AMPA-R is the key characteristic of TAK-653 for robust synaptic responses and cognitive improvement” (Scientific Reports, 2021).
# pIC50: −log10 of the molar value.
# Molecular target: T1, lipoxygenase 5-LO (Homo sapiens, UniProt P09917)
# T1 construct: Ricerca, Taipei, Taiwan
# T1 sequence (P09917 1-674): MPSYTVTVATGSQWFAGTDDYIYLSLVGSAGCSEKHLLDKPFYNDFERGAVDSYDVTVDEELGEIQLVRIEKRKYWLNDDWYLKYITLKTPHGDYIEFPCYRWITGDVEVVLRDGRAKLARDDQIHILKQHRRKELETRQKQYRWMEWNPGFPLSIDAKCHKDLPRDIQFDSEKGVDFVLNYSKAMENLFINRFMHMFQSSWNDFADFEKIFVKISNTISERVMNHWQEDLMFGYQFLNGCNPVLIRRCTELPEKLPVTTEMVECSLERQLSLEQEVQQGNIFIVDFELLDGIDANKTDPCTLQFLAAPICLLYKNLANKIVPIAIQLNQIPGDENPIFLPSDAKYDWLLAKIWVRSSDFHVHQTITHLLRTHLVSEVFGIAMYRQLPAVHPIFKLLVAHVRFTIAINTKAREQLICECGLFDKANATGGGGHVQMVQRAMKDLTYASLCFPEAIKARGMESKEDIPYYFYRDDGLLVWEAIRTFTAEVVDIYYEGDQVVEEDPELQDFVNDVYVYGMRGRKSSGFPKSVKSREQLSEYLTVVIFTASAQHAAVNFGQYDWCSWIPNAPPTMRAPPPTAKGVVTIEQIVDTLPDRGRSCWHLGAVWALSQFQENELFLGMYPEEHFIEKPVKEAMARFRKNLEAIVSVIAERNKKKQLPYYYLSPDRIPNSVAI
# Assay: Lipoxygenase 5-LO enzyme activity
# Type: biochemical
structure (smiles),measurement,value
"CC1=CN2CCS(=O)(=O)N=C2C(c2ccc(OC3CCCCC3)cc2)=N1 [TAK-653, 9-[4-(Cyclohexyloxy)phenyl]-7-methyl-3,4-dihydropyrazino[2,1-c][1,2,4]thiadiazine 2,2-dioxide]",pIC50,5.23
